Experimental data published in paper PMC5291303 (Science translational medicine, 2016).

How the values were obtained:
[1] = test system: MIA PaCa-2 model of pancreatic ductal adenocarcinoma; experiment: MIA PaCa-2 subcutaneous xenograft efficacy; type: in vivo, mice
[2] = Toxicity studies to determine NOAEL; type: in vivo, mice; conditions: plasma AUC at NOAEL vs at MED
[3] = test system: MDA-MB-231-LM2 breast cancer metastases; experiment: MDA-MB-231-LM2 experimental lung metastasis model; type: in vivo, SCID/beige mice; conditions: for Tumor-free animals: up to 106 days after initial treatment
[4] = test system: RS4;11 model of adult Philadelphia chromosome–negative ALL; experiment: RS4; type: in vivo, mice; conditions: P = 0.0028 tumor cells; P = 0.0024 survival
[5] = test system: human pancreatic cancer PDX; experiment: Pancreatic cancer patient-derived xenograft; type: in vivo, SCID/beige mice; conditions: for Effect on tumor growth: gemcitabine 100 mg/m^2, DZ-2384 36 mg/m^2, alone or combined
[6] = test system: Rgs16∷GFP;KIC pancreatic model; experiment: Rgs16::GFP; type: in vivo, mice
[7] = test system: caudal, digital and tibial nerves; dorsal root ganglia, sciatic nerve; experiment: Peripheral neuropathy study; type: in vivo, Sprague-Dawley rats; conditions: for Caudal and digital NCV / Tibial nerve onset latency / Caudal and digital NCV after recovery / Histology of dorsal root ganglia and sciatic nerve: at MTD (DZ-2384 30 mg/m^2, docetaxel 120 mg/m^2)
Pharmacokinetics in rats = type: in vivo, Sprague-Dawley rats; conditions: rat; 12 mg/m^2
H1299 cells [8] = experiment: Growth inhibition of H1299 cells; type: cell-based
HeLa cells = experiment: 3-day cell viability assay, HeLa; type: cell-based
[9] = test system: U-2 osteosarcoma (OS) cells; experiment: 3-day viability assay, U-2 OS; type: cell-based
[10] = test system: E18 rat primary cortical neurons; experiment: IC50 in primary cortical neurons; type: cell-based
[11] = test system: primary rat cortical neurons; experiment: Axonal microtubule immunostaining in primary neurons; type: cell-based; conditions: 1 hour; 0.3 to 100 nM; DZ-2384 up to 100 nM, vinorelbine starting at 0.3 nM
[12] = test system: microtubules in LLC-PK1 cells expressing GFP–α-tubulin; experiment: Microtubule dynamic instability in live cells; type: cell-based; conditions: IC80: 24 nM DZ-2384, 11 nM vinorelbine; mean ± SD
tubulin [13] = experiment: Surface plasmon resonance binding and competition; conditions: tubulin (3 μM) preincubated with competitor
[14] = test system: microtubule polymer mass in H1299 cells; experiment: Microtubule sedimentation assay; type: cell-based; conditions: 4 hours, increasing concentrations
purified tubulin [15] = experiment: Reconstituted single molecule assay for microtubule dynamics; type: biochemical; conditions: for Growth and shrinkage rates: 100 nM DZ-2384
purified tubulin [16] = experiment: Electron microscopy of tubulin oligomer curvature; type: biochemical; conditions: 10 μM; compared with vinblastine
H1299 cells [17] = experiment: DNA content and caspase-3 activation in H1299 cells; type: cell-based
[18] = test system: U-2 OS osteosarcoma cells; experiment: Interphase microtubule immunostaining in U-2 OS cells; type: cell-based; conditions: unsynchronized, IC80 (300 nM each), 2 hours
[19] = test system: U-2 OS cells stably expressing an EB3-mCherry fusion protein; experiment: Growing microtubule ends in EB3-mCherry U-2 OS cells; type: cell-based; conditions: equipotent (IC80) concentrations
[20] = all doses tested, each xenograft model
[21] = Plasma exposure by LC-MS/MS at MED and NOAEL doses
tubulin [22] = conditions: cited from earlier work
in vivo = conditions: mouse
[23] = relative to untreated microtubules

For `CC(C)[C@H](O)C(=O)N[C@H]1Cc2ccc3c(c2)[C@]2(C4=C(c5nc(CO)co5)N=C(O4)[C@H](C(C)(C)C)NC1=O)c1cc(F)ccc1N[C@@H]2O3` [DZ-2384], the Tumor-free animals ([1]; 9 mg/m^2, ~3 months after treatment) was “all mice were tumor-free”, the Tumor response ([1]; 4 weekly bolus i.v. administrations) was “complete tumor regression” and the “Safety margin (range over MIA PaCa-2 and HT-29 models)” value [2] was 24.4 to 53.5. For the same compound, the Tumor-free animals ([3]; 4.5 mg/m^2) was 1 of 5, the Tumor-free animals ([3]; 18 mg/m^2) was 2 of 8 and the Survival ([3]; all treated groups, P < 0.0001 vs vehicle) was “significantly increased the survival”. The “Effect on lung metastases” value ([3]; starting at the lowest dose tested) was “regression of all lung metastases”, the “Dose reducing circulating tumor cells (day 23) and increasing survival” value [4] was no more than 0.7 mg/m^2 and the Deaths ([5]; day 29) was “One animal inexplicably died”. For the same compound, the “Effect on tumor growth” value [5] was “insignificant effects on tumor growth”, the “Body weight loss after the first dose” value ([5]; then quickly recovered) was 11% and the “Tolerability of 30 mg/m^2” value ([6]; administered on P23 (no mortality)) was “tolerated”. For the same compound, the “NCV and onset latency” value ([7]; day 24, 12 mg/m^2, vs age-matched controls) was “normal NCV and onset latency”, the “Caudal and digital NCV” value ([7]; day 24) was “slowing of the caudal and distal digital NCV” and the “Tibial nerve onset latency” value ([7]; day 24) was “the tibial nerve was unaffected”. For the same compound, the “Histology of lumbar dorsal root ganglia and sciatic nerve” value ([7]; day 44, 12 mg/m^2) was “no changes”, the “Caudal and digital NCV after recovery” value ([7]; day 44) was “remained slow” and the “Histology of dorsal root ganglia and sciatic nerve” value ([7]; day 44) was “did not find histological evidence of neurotoxicity”. It also gave an AUC (Pharmacokinetics in rats) of 4371 ng·h/mL, an IC50 (H1299 cells [8]; H1299 cells) of 12 nM and an IC80 (HeLa cells; 3-day cell viability assay) of 4 nM. For the same compound, the IC80 ([9]; U-2 OS, 3-day) was 300 nM, the IC50 [10] was 43 nM and the “Axonal morphology, width and tubulin staining” value [11] was “minimal qualitative differences”. The “%Time per phase Growth” value [12] was 42.1 ± 13.1 (0.9109) %, the “%Time per phase Pause” value [12] was 32.7 ± 12.1 (0.7422) % and the “%Time per phase Shrink” value [12] was 25.2 ± 1.4 (0.3079) %. For the same compound, the Dynamicity [12] was 10.4 ±1.4 (0.0335) μm/min, the “Growth Distance” value [12] was 2.4 ± 0.3 (0.0631) μm and the “Growth Duration” value [12] was 19.0 ± 6.2 (0.2666) s. For the same compound, the “Growth Rate” value [12] was 8.3 ±1.6 (0.0164) μm/min, the “Shrink Distance” value [12] was 4.7 ± 0.9 (0.3899) μm and the “Shrink Duration” value [12] was 10.6 ± 1.3 (0.6087) s. The “Shrink Rate” value [12] was 27.7 ± 2.2 (0.6081) μm/min, the “Competition of tubulin binding to biotinylated DZ-2384 surfaces” value (tubulin [13]) was “inhibited its binding” and the Microtubule polymer mass [14] was “decrease in microtubule polymer mass”. For the same compound, the “Growth and shrinkage rates” value (purified tubulin [15]; [23]) was “decreased by about twofold”, the Rescue frequency (purified tubulin [15]; P = 0.0236 at 50 nM) was “twice the rate seen with vinorelbine” and the Catastrophe frequencies (purified tubulin [15]; [23]) was “slightly increased”. For the same compound, the “Protofilament curvature (κ)” value (purified tubulin [16]) was “straighter”, the “Start of accumulation in G2-M phase” value (H1299 cells [17]) was 4 to 8 h and the “Start of apoptosis (procaspase-3 cleavage)” value (H1299 cells [17]; after treatment) was 16 h. For the same compound, the Interphase microtubule network [18] was “microtubules were present”, the “Number of growing microtubules” value [19] was “decreased the number of growing microtubules” and the Body weight loss [20] was “less than 10%”. For the same compound, the “MED Exposure [AUC0-α]” value ([21]; mouse plasma AUC at the MED of the HT-29 model) was 344 ng·h/mL, the “MED Exposure [AUC0-α]” value ([21]; mouse plasma AUC at the MED of the MIA PaCa-2 model) was 157 ng·h/mL and the “NOAEL Exposure [AUC0-α]” value ([21]; mouse plasma AUC at the NOAEL dose) was 8398 ng·h/mL.
With `Nc1ccn([C@@H]2O[C@H](CO)[C@@H](O)C2(F)F)c(=O)n1` [gemcitabine, reference compound] the “Effect on tumor growth” value [5] was “insignificant effects on tumor growth” and the Clinical observations ([6]; weanling mice) was “not with gemcitabine alone”.
With `CC(=O)O[C@@]12CO[C@@H]1C[C@H](O)[C@@]1(C)C(=O)[C@H](O)C3=C(C)[C@@H](OC(=O)[C@H](O)[C@@H](NC(=O)OC(C)(C)C)c4ccccc4)C[C@@](O)([C@@H](OC(=O)c4ccccc4)[C@H]21)C3(C)C` [docetaxel, reference compound] the “Caudal and digital NCV” value ([7]; day 24) was “decrease in NCV in caudal and digital nerves”, the “Tibial nerve onset latency” value ([7]; day 24) was “increase in onset latency in tibial nerves” and the “Caudal and digital NCV after recovery” value ([7]; day 44) was “no improvement in either caudal or digital NCV”. For the same compound, the “Histology of dorsal root ganglia and sciatic nerve” value ([7]; day 44) was “incomplete recovery of the damaged dorsal root ganglia” and the Microtubule polymer mass [14] was “increased microtubule polymer mass”.
In the case of `CCC1=C[C@@H]2CN(C1)Cc1c([nH]c3ccccc13)[C@@](C(=O)OC)(c1cc3c(cc1OC)N(C)[C@H]1[C@@](O)(C(=O)OC)[C@H](OC(C)=O)[C@]4(CC)C=CCN5CC[C@]31[C@@H]54)C2` [Vinorelbine, vinorelbine, reference compound], the “Safety margin (range over MIA PaCa-2 and HT-29 models)” value [2] is reported as 0.7 to 1.0, the IC50 (H1299 cells [8]; Homo sapiens, NCI-H1299) is reported as 15 nM and the IC80 (HeLa cells; Homo sapiens, 72 h) is reported as 11 nM. For the same compound, the IC80 ([9]; Homo sapiens, U2OS, 72 h) was 300 nM, the “Axonal morphology, width and tubulin staining” value [11] was “thinner and/or fragmented axons” and the “%Time per phase Growth” value [12] was 13.1 ± 7.3 (0.0074) %. The “%Time per phase Pause” value [12] was 48.4 ± 8.1 (0.0141) %, the “%Time per phase Shrink” value [12] was 38.6 ± 8.6 (0.1068) % and the Dynamicity [12] was 10.2 ±1.3 (0.0165) μm/min. The “Growth Distance” value [12] was 2.1 ± 0.2 (0.0036) μm, the “Growth Duration” value [12] was 17.5 ± 5.8 (0.4242) s and the “Shrink Distance” value [12] was 6.4 ± 1.4 (0.2345) μm. For the same compound, the “Shrink Duration” value [12] was 17.6 ± 6.6 (0.1570) s, the “Shrink Rate” value [12] was 24.6 ± 3.5 (0.1242) μm/min and the “Competition of tubulin binding to biotinylated DZ-2384 surfaces” value (tubulin [13]) was “blocked its binding”. The Microtubule polymer mass [14] was “like with vinorelbine”, the “Growth and shrinkage rates” value (purified tubulin [15]; [23]) was “Comparable growth and shrinkage rate decreases” and the Interphase microtubule network [18] was “intact microtubules were difficult to observe”. The “Number of growing microtubules” value [19] was “vastly decreasing the number of growing microtubules”, the Body weight loss [20] was “less than 10%” and the “Affinity compared to vinblastine” value (tubulin [22]) was “lower affinity”. For the same compound, the AUC (in vivo) was 3380 ng·h/mL and the AUC ([21]; mouse, in vivo, 30 mg/m^2) was 2310 ng·h/mL.
